Laboratory results taken from US7709471B2, “Compounds” (AstraZeneca AB, priority 2006, dated 2010).

Experiments:
[1] = test system: human colon tumour cell line HT29; test: Cellular Assay (phosphohistone H3 Ser10 mitotic marker, HT29); type: cell-based; conditions: HT-29, 24 h, HT29 cells, read-out: IC50 (cellular assay, phosphohistone H3)
Experimental: Chromosome condensation in mitosis is accompanied by phosphorylation of histone H3 on serine 10.
After 24 hours, cells were fixed in 3.7% (v/v) formaldehyde then permeabilised and blocked for 10 minutes in 100 μl 0.5% (v/v) Triton X-100, 1% (w/v) bovine serum albumin (BSA) in phosphate buffered saline (PBS). […] The raw assay data were analysed by non-linear regression analysis and used to determine an IC50 value for each compound.

recombinant Plk1 = recombinant Plk1 (Homo sapiens, UniProt P53350); test: In Vitro Plk1 Enzyme Assay (SPA, GST-Cdc25C phosphorylation); type: biochemical; conditions: ATP 64 nM, 90 minutes, read-out: IC50 (Plk1 enzyme inhibition)
Sequence of recombinant Plk1 (P53350 whole entry): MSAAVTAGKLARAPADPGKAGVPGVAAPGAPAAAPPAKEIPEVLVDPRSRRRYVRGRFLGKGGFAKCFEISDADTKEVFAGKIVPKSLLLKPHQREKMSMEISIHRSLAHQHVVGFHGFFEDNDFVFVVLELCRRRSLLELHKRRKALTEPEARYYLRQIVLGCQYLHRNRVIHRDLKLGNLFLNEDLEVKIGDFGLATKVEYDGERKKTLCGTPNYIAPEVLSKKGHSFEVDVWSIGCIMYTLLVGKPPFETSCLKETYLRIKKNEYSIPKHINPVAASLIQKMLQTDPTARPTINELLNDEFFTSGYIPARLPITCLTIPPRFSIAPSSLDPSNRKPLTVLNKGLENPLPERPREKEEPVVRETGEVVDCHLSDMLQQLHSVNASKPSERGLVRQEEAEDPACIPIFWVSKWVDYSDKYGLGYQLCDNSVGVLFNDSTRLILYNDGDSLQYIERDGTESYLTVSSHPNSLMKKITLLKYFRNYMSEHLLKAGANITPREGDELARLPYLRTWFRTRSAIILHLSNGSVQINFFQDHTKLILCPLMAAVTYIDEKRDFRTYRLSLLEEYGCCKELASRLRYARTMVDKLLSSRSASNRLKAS

COc1cc(C(=O)NC2C[C@H]3CCC[C@@H](C2)N3C)ccc1Nc1ncc2c(n1)N(C1CCCCC1)CC1(CC1)C(=O)N2C (stereo partly drawn) [Example 432, 4-(9′-cyclohexyl-5′-methyl-6′-oxo-5′,6′,8′,9′-tetrahydrospiro[cyclopropane-1,7′-pyrimido[5,4-b][1,4]diazepine]-2′-ylamino)-3-methoxy-N-[(1S,5R)-9-methyl-9-azabicyclo[3.3.1]non-7-yl]benzamide]
IC50 [1]: < 300 nM
IC50 (recombinant Plk1): < 300 nM

COc1cc(C(=O)NC2CC3CCC(C2)N3C)ccc1Nc1ncc2c(n1)N(C1CCCC1)CCC(=O)N2C [Example 71, 4-[(6-cyclopentyl-2-methyl-3-oxo-2,6,8,10-tetrazabicyclo[5.4.0]undeca-8,10,12-trien-9-yl)amino]-3-methoxy-N-[(1S,5R)-8-methyl-8-azabicyclo[3.2.1]oct-3-yl]benzamide]
IC50 [1]: < 300 nM
IC50 (recombinant Plk1): < 300 nM

COc1cc(C(=O)NCCCCN)ccc1Nc1ncc2c(n1)N(C1CCCC1)CCC(=O)N2C [Example 40, N-(4-aminobutyl)-4-[(6-cyclopentyl-2-methyl-3-oxo-2,6,8,10-tetrazabicyclo[5.4.0]undeca-8,10,12-trien-9-yl)amino]-3-methoxy-benzamide]
IC50 [1]: < 30000 nM
IC50 (recombinant Plk1): < 300 nM

COc1cc(C(=O)NCCCN2CCN(C)CC2)ccc1Nc1ncc2c(n1)N(C1CCCC1)CCC(=O)N2C [Example 20, 4-[(6-cyclopentyl-2-methyl-3-oxo-2,6,8,10-tetrazabicyclo[5.4.0]undeca-8,10,12-trien-9-yl)amino]-3-methoxy-N-[3-(4-methylpiperazin-1-yl)propyl]benzamide]
IC50 [1]: < 300 nM
IC50 (recombinant Plk1): < 300 nM

COc1cc(C(=O)N[C@@H]2CCN(C)C2)ccc1Nc1ncc2c(n1)N(C1CCCC1)CCC(=O)N2C [Example 62, 4-[(6-cyclopentyl-2-methyl-3-oxo-2,6,8,10-tetrazabicyclo[5.4.0]undeca-8,10,12-trien-9-yl)amino]-3-methoxy-N-[(3R)-1-methylpyrrolidin-3-yl]benzamide]
IC50 [1]: < 300 nM
IC50 (recombinant Plk1): < 300 nM

COc1cc(C(=O)NCCCN2CCCCCC2)ccc1Nc1ncc2c(n1)N(C1CCCC1)CCC(=O)N2C [Example 70, N-[3-(azepan-1-yl)propyl]-4-[(6-cyclopentyl-2-methyl-3-oxo-2,6,8,10-tetrazabicyclo[5.4.0]undeca-8,10,12-trien-9-yl)amino]-3-methoxy-benzamide]
IC50 [1]: < 300 nM
IC50 (recombinant Plk1): < 1000 nM

CN1CCC(NC(=O)c2c(F)cc(Nc3ncc4c(n3)N(C3CCCC3)CCC(=O)N4C)cc2F)CC1 [Example 187, 4-[(6-cyclopentyl-2-methyl-3-oxo-2,6,8,10-tetrazabicyclo[5.4.0]undeca-8,10,12-trien-9-yl)amino]-2,6-difluoro-N-(1-methyl-4-piperidyl)benzamide]
IC50 [1]: < 30000 nM
IC50 (recombinant Plk1): < 100000 nM

COc1cc(C(=O)NC2CCN(C)CC2)ccc1Nc1ncc2c(n1)N(CCC(C)C)CCC(=O)N2C [Example 7, 3-Methoxy-4-[[6-methyl-2-(3-methylbutyl)-5-oxo-2,6,9,11-tetrazabicyclo[5.4.0]undeca-7,9,11-trien-10-yl]amino]-N-(1-methyl-4-piperidyl)benzamide]
IC50 [1]: < 1000 nM
IC50 (recombinant Plk1): < 1000 nM

COc1cc(C(=O)NCCCN)ccc1Nc1ncc2c(n1)N(C1CCCC1)CCC(=O)N2C [Example 42, N-(3-aminopropyl)-4-[(6-cyclopentyl-2-methyl-3-oxo-2,6,8,10-tetrazabicyclo[5.4.0]undeca-8,10,12-trien-9-yl)amino]-3-methoxy-benzamide]
IC50 [1]: < 30000 nM
IC50 (recombinant Plk1): < 300 nM

COc1cc(C(=O)NCCCCN(C)C)ccc1Nc1ncc2c(n1)N(C1CCCC1)CCC(=O)N2C [Example 21, 4-[(6-cyclopentyl-2-methyl-3-oxo-2,6,8,10-tetrazabicyclo[5.4.0]undeca-8,10,12-trien-9-yl)amino]-N-(4-dimethylaminobutyl)-3-methoxy-benzamide]
IC50 [1]: < 300 nM
IC50 (recombinant Plk1): < 300 nM

COc1cc(C(=O)NCc2ccncc2)ccc1Nc1ncc2c(n1)N(C1CCCC1)CCC(=O)N2C [Example 80, 4-[(6-cyclopentyl-2-methyl-3-oxo-2,6,8,10-tetrazabicyclo[5.4.0]undeca-8,10,12-trien-9-yl)amino]-3-methoxy-N-(pyridin-4-ylmethyl)benzamide]
IC50 [1]: < 300 nM
IC50 (recombinant Plk1): < 1000 nM

COc1cc(C(=O)NCC2(CN3CCCC3)CC2)ccc1Nc1ncc2c(n1)N(C1CCCC1)CCC(=O)N2C [Example 83, 4-[(6-cyclopentyl-2-methyl-3-oxo-2,6,8,10-tetrazabicyclo[5.4.0]undeca-8,10,12-trien-9-yl)amino]-3-methoxy-N-[[1-(pyrrolidin-1-ylmethyl)cyclopropyl]methyl]benzamide]
IC50 [1]: < 300 nM
IC50 (recombinant Plk1): < 300 nM

COc1cc(C(=O)NCC2CC2)ccc1Nc1ncc2c(n1)N(C1CCCC1)CCC(=O)N2C [Example 94, 4-[(6-cyclopentyl-2-methyl-3-oxo-2,6,8,10-tetrazabicyclo[5.4.0]undeca-8,10,12-trien-9-yl)amino]-N-(cyclopropylmethyl)-3-methoxy-benzamide]
IC50 [1]: < 300 nM
IC50 (recombinant Plk1): < 100000 nM

Cc1ccc(Oc2ccccc2Nc2ncc3c(n2)N(C2CCCC2)CCC(=O)N3C)cc1 [Example 159, 6-cyclopentyl-2-methyl-9-[[2-(4-methylphenoxy)phenyl]amino]-2,6,8,10-tetrazabicyclo[5.4.0]undeca-8,10,12-trien-3-one]
IC50 [1]: < 30000 nM
IC50 (recombinant Plk1): < 100000 nM

Cc1ccc(CO)cc1Nc1ncc2c(n1)N(C1CCCC1)CCC(=O)N2C [Example 178, 6-cyclopentyl-9-[[5-(hydroxymethyl)-2-methyl-phenyl]amino]-2-methyl-2,6,8,10-tetrazabicyclo[5.4.0]undeca-8,10,12-trien-3-one]
IC50 [1]: < 30000 nM
IC50 (recombinant Plk1): < 1000 nM

CCN1CC[C@@H](NC(=O)c2ccc(Nc3ncc4c(n3)N(C3CCCC3)CCC(=O)N4C)c(OC)c2)C1 [Example 326, 4-[(2-cyclopentyl-6-methyl-5-oxo-2,6,9,11-tetrazabicyclo[5.4.0]undeca-7,9,11-trien-10-yl)amino]-N-[(3R)-1-ethylpyrrolidin-3-yl]-3-methoxy-benzamide]
IC50 [1]: < 300 nM
IC50 (recombinant Plk1): < 300 nM

COc1cc(C(=O)NC2CCN(CC3CC3)CC2)ccc1Nc1ncc2c(n1)N(C1CCCC1)CCC(=O)N2C [Example 319, 4-[(2-cyclopentyl-6-methyl-5-oxo-2,6,9,11-tetrazabicyclo[5.4.0]undeca-7,9,11-trien-10-yl)amino]-N-[1-(cyclopropylmethyl)-4-piperidyl]-3-methoxy-benzamide]
IC50 [1]: < 300 nM
IC50 (recombinant Plk1): < 300 nM

CC(C)N1CCC(=O)N(C)c2cnc(Nc3ccc(C(=O)NC4CCN(C)CC4)cc3Cl)nc21 [Example 203, 3-chloro-4-[(2-methyl-3-oxo-6-propan-2-yl-2,6,8,10-tetrazabicyclo[5.4.0]undeca-7,9,11-trien-9-yl)amino]-N-(1-methyl-4-piperidyl)benzamide]
IC50 [1]: < 300 nM
IC50 (recombinant Plk1): < 300 nM

COc1cc(C(=O)N[C@@H]2CCN(C(=O)OC(C)(C)C)C2)ccc1Nc1ncc2c(n1)N(C1CCCC1)CCC(=O)N2C [Example 52, tert-butyl (3R)-3-[[4-[(6-cyclopentyl-2-methyl-3-oxo-2,6,8,10-tetrazabicyclo[5.4.0]undeca-8,10,12-trien-9-yl)amino]-3-methoxy-benzoyl]amino]pyrrolidine-1-carboxylate]
IC50 [1]: < 300 nM
IC50 (recombinant Plk1): < 1000 nM
